What was measured:
[1] = system: Standard Bred horses; experiment: Joint swelling after racing in Standard Bred horses given ribose before and/or after each race; type: in vivo, horse
Text: The dosage given should be adjusted carefully to each animal. It has been observed that the swelling reaction is variable; some horses have a great deal of swelling after each race and others are less affected. […] Beginning with a dose of 20 gm ribose, the dosages were adjusted upward. […] Although the weight of the horse was not a factor, the state of nourishment was important. Less well-nourished horses require less ribose for the prophylaxis and therapy of joint swelling. In those horses tested by Applicant, which had been maintained on the ribose-containing supplement, it was seen that a dosage of about 100 or 200 grams of ribose was required to prevent or reduce swelling. In all mammals it may be seen that increasing doses of ribose are necessary to provide the benefit of this invention. This seeming paradox may be due to the fact that mammals receiving ribose as a maintenance dietary supplement have more energy, run faster and thus sustain more acute exercise-related trauma to the joints. It must be stressed that whether or not horses are maintained on a ribose-containing dietary supplement such as that of Applicant, in order to obtain the benefits of this invention, the dosage and timing disclosed above must be followed. Twelve Standard Bred horses, three to eight years of age, were tested. […] The swelling was treated either with cold packs or rest. Time to recovery was approximately one hour to several days. In general, the horses were rested for three days and then exercised by jogging each day, running two miles and then increasing the miles to six to eight. The test horses were put on a schedule of ribose administration in a dosage of 40 gm before each race. […] Therefore, the standard procedure was to administer the optimal dose of ribose both before and after each race. […] Time to recovery of these animals was about ten hours. […] After the horses had been on ribose maintenance for a time, all required higher doses of ribose, up to 100 gm a dose given both before and after racing, in order to show a benefit.

[2] = system: Racing dogs, generally greyhounds; experiment: Joint swelling after racing in racing dogs given ribose before the race; type: in vivo, dog
Experimental: Racing dogs, generally greyhounds, are also susceptible to swollen joints after racing. […] The observed dosage for a horse was approximately 100 to 300 mg per kilogram body weight. Based on this observation, a greyhound weighing 65 pounds will benefit from a dose of about two to twelve grams of ribose which is approximately 65 to 300 mg per kilogram. The dosage should be given just before each race or hard workout. […] Administration can be by any convenient means. Ribose has a slightly sweet taste and dogs will readily drink a solution of ribose in water. Alternatively, the ribose solution can be sprayed into the dog's mouth for buccal absorption. […] As for horses, the ribose should not be given more than half an hour before the race or with other food or anything else that would delay absorption.

[3] = system: Humans; experiment: Swollen, sore knee joints in human subjects taking ribose; type: in vivo
Text: Non-runners can also experience swelling in the joints. One subject who works in construction and does a lot of lifting frequently has swollen knees with accompanying soreness. […] A heavy equipment operator has suffered from soreness in their knees for several years following an injury to the joint. […] The third subject is a competitive “strong man” who competes in such trials as lifting heavy rocks and pulling buses. In the course of their training and competition, they have stressed their knee joints, which are frequently swollen and sore. […] On one occasion, they ingested a dose of 30 grams of ribose and the soreness in their knees disappeared within twenty minutes.

## O=C[C@H](O)[C@H](O)[C@H](O)CO [ribose, D-Ribose]
[1]; 40 gm ribose before each race only, twelve horses
  joint swelling after race: most of the animals still showed some joint swelling
[1]; animals with moderate swelling despite ribose before and after race, cold packs applied
  time to recovery: about ten
[1]; compared with animals not given ribose before and after racing
  resumption of training: able to resume training earlier
[1]; easily absorbed dose of ribose alone given immediately before and immediately after each race
  benefit on swelling, ribose alone: additional benefit was seen
[1]; horses on ribose maintenance for a time, dose given both before and after racing
  dose required to show a benefit: up to 100 gm
[1]; optimal dose of ribose both before and after each race
  joint swelling after race: the majority of the animals showed no swelling
[1]; optimal dose of ribose both before and after each race, cold packs applied
  fraction of animals showing moderate swelling: About one-third
[1]; ribose at suggested levels
  side-effects: no side-effects
[1]; ribose given only before the race
  attitude of the horses after a race (subjective measure): willing to play and move around their stalls
[2]; high dose before the race only
  prevention or reduction of joint swelling: adequate in most cases to prevent or reduce joint swelling
[2]; proper dosage of ribose, about two to twelve grams for a 65 pound greyhound
  expected benefit on swollen joints after racing: expected to give the same benefit as is shown for horses
[3]; competitive strong man, doses of five to ten grams
  symptoms of swollen and sore knee joints: symptoms are lessened
[3]; competitive strong man, single dose of 30 grams
  time until soreness in knees disappeared: twenty
[3]; construction worker with swollen knees, dose of about five grams
  knee soreness: soreness subsides
[3]; heavy equipment operator, soreness after joint injury, five gram dose
  knee achiness: effective to lessen the achiness
